Results as given in patent publication US5736565A, “Therapeutic compounds suitable for the treatment of diseases connected with glutathione deficiency, process for their preparation, and pharmaceutical compositions containing same” (Prospa B.V., priority 1992, dated 1998).
Like-named read-outs stand apart in the source and are kept apart here. Peptide text beside a SMILES is read from it.

Tests used:
hepatocytes = experiment: Tests in vitro: vitality of isolated rat hepatocytes; type: cell-based; details: for viability at 250 µM / viability at 500 µM / viability at 1000 µM / viability at 2500 µM / viability at 5000 µM: Rattus norvegicus, Hepatocyte, read-out: Cells vitality; for viability at 1000 µM: DEM + 1.0 mM; for viability at 5000 µM: DEM + 5.0 mM
Description: The experimental model envisages the isolation of hepatic parenchymal cells of rats following perfusion, with collagenase, of the isolated organ. Prior to each test, hepatocytes vitality was quantified by Tripan Blue […]. Only the cells with a vitality greater than 90% were utilized. Hepatocytes were resuspended, at a concentration of 10^6 cells/ml, in a saline medium (Krebs Heinseleit) at ph 7.4, and then placed into rotating flasks in the presence of O2 (95%) and CO2 (5%), at 37° C. Cells keep vital for 5-6 hours at least.
[…] The cells were then washed for 30 min. and incubated with various concentrations of the test substance (from 0.25 to 5 mM).
By this experimental model it is possible to test the effect of the substance by evaluating the hepatic functionality determined by measurements of the vitality (Tables Nos. 3, 4, and 5) and of glutathione content (Tables 6, 7, and 8).
In the Tables 3-8 herein below reported, the controls are represented by normal hepatocytes, not treated either with DEM or with compound (I).

[1] = test system: Lewis lung carcinoma cells; experiment: Transplantable neoplasms: metastases development in BALB/c mice; type: in vivo
Description: Male adult BALB/c mice weighing 20 g were stabled under standard conditions (24°±1° C., 12 h light/dark cycle, free access to food and water). Handlings were made in such a way as to avoid stressful stimuli.
All animals, subdivided into groups of 6, were treated 4 weeks with a PSC dose (600 mg/kg). […] Treatment was continued two weeks after tumour inoculation. The mice were sacrificed and the tumoral mass growth and the development of metastases, if any, were evaluated.

[2] = 600 mg/kg i.p., 30 days' treatment, 15 days after inoculation

CC(=O)SC[C@H](NC(=O)[C@@H]1CCC(=O)N1)C(=O)O [PSC, 2-(S)-(2-pyrrolidone-5-(S)-carbonyl amido)-3-acetylmercapto propionic acid] (HELM PEPTIDE1{[Glp].C}|PEPTIDE2{[ac]}$PEPTIDE1,PEPTIDE2,2:R3-1:R2$$$V2.0)
viability at 250 µM (hepatocytes; 0 h, DEM + 0.25 mM, 0 time (Table 4)): 95% | viability at 500 µM (hepatocytes; 0 h, DEM + 0.50 mM, 0 time (Table 4)): 95% | viability at 1000 µM (hepatocytes; 0 h, 0 time (Table 5)): 96% | viability at 2500 µM (hepatocytes; 0 h, DEM + 2.5 mM, 0 time (Table 5)): 96% | viability at 5000 µM (hepatocytes; 0 h, 0 time (Table 5)): 96% | viability at 250 µM (hepatocytes; 0 h, no DEM, 0.25 mM, 0 time): 100% | viability at 500 µM (hepatocytes; 0 h, no DEM, 0.50 mM, 0 time): 100% | viability at 2500 µM (hepatocytes; 0 h, no DEM, 2.5 mM, 0 time): 100% | viability at 250 µM (hepatocytes; 0.5 h, DEM + 0.25 mM, 30 min (Table 4)): 90% | viability at 500 µM (hepatocytes; 0.5 h, DEM + 0.50 mM, 30 min (Table 4)): 88% | viability at 1000 µM (hepatocytes; 0.5 h, 30 min (Table 5)): 92% | viability at 2500 µM (hepatocytes; 0.5 h, DEM + 2.5 mM, 30 min (Table 5)): 89% | viability at 5000 µM (hepatocytes; 0.5 h, 30 min (Table 5)): 88% | viability at 250 µM (hepatocytes; 0.5 h, no DEM, 0.25 mM, 30 min): 101% | viability at 500 µM (hepatocytes; 0.5 h, no DEM, 0.50 mM, 30 min): 101% | viability at 2500 µM (hepatocytes; 0.5 h, no DEM, 2.5 mM, 30 min): 94% | viability at 250 µM (hepatocytes; 1 h, DEM + 0.25 mM, 1 hr (Table 4)): 87% | viability at 500 µM (hepatocytes; 1 h, DEM + 0.50 mM, 1 hr (Table 4)): 85% | viability at 1000 µM (hepatocytes; 1 h, 1 hr (Table 5)): 90% | viability at 2500 µM (hepatocytes; 1 h, DEM + 2.5 mM, 1 hr (Table 5)): 84% | viability at 5000 µM (hepatocytes; 1 h, 1 hr (Table 5)): 84% | viability at 250 µM (hepatocytes; 1 h, no DEM, 0.25 mM, 1 hr): 98% | viability at 500 µM (hepatocytes; 1 h, no DEM, 0.50 mM, 1 hr): 100% | viability at 2500 µM (hepatocytes; 1 h, no DEM, 2.5 mM, 1 hr): 95% | viability at 250 µM (hepatocytes; 2 h, DEM + 0.25 mM, 2 hrs (Table 4)): 86% | viability at 500 µM (hepatocytes; 2 h, DEM + 0.50 mM, 2 hrs (Table 4)): 84% | viability at 1000 µM (hepatocytes; 2 h, 2 hrs (Table 5)): 89% | viability at 2500 µM (hepatocytes; 2 h, DEM + 2.5 mM, 2 hrs (Table 5)): 83.5% | viability at 5000 µM (hepatocytes; 2 h, 2 hrs (Table 5)): 82% | viability at 250 µM (hepatocytes; 2 h, no DEM, 0.25 mM, 2 hrs): 100% | viability at 500 µM (hepatocytes; 2 h, no DEM, 0.50 mM, 2 hrs): 101% | viability at 2500 µM (hepatocytes; 2 h, no DEM, 2.5 mM, 2 hrs): 95% | viability at 250 µM (hepatocytes; 4 h, DEM + 0.25 mM, 4 hrs (Table 4)): 87% | viability at 500 µM (hepatocytes; 4 h, DEM + 0.50 mM, 4 hrs (Table 4)): 85% | viability at 1000 µM (hepatocytes; 4 h, 4 hrs (Table 5)): 88% | viability at 2500 µM (hepatocytes; 4 h, DEM + 2.5 mM, 4 hrs (Table 5)): 82% | viability at 5000 µM (hepatocytes; 4 h, 4 hrs (Table 5)): 80% | viability at 250 µM (hepatocytes; 4 h, no DEM, 0.25 mM, 4 hrs): 116% | viability at 500 µM (hepatocytes; 4 h, no DEM, 0.50 mM, 4 hrs): 114% | viability at 2500 µM (hepatocytes; 4 h, no DEM, 2.5 mM, 4 hrs): 104% | cellular suffering (in words) (hepatocytes; hepatocytes treated with DEM then test substance): a cellular suffering (cellular dilatation without appearance of vesicles) was at first detected, which disappeared after few tens of minutes | cellular toxicity (in words) (hepatocytes; in vitro, up to 5 mM): does not cause cellular toxicity and, at least in vitro, is very well tolerated | Mice with metastases, % [1, 2]: 33% | Mice with metastases/group [1, 2]: 2/6 | metastatic process (in words) ([1]; mouse, in vivo): slows down the metastatic process
